Broadly, the EC50 is the concentration at which the effect is half-maximal. As usually defined, the Emax is the size of the effect at its maximum, as opposed to the concentration needed.

This assay concerns the target human F508del-CFTR (Homo sapiens, UniProt P13569, DEL508-508). The experiment in a line: F508del-CFTR cell surface expression (corrector activity), DiscoveRx ß-galactosidase complementation chemiluminescence assay in recombinant U2OS cell line.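 For all read-outs here: U2OS cells co-expressing ProLink-tagged F508del-CFTR and a membrane-anchored enzyme acceptor, where more surface CFTR restores β-galactosidase activity measured by chemiluminescence.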 The settings on record: for EC50: EC50, F508del-CFTR cell surface expression, U2OS cells, 16h compound incubation, geomean values; for Emax: U2OS, in relation to Emax of corrector lumacaftor (=100%), arithmetic mean values.

Sequence of human F508del-CFTR (P13569 with tags, fused parts or gaps DEL508-508): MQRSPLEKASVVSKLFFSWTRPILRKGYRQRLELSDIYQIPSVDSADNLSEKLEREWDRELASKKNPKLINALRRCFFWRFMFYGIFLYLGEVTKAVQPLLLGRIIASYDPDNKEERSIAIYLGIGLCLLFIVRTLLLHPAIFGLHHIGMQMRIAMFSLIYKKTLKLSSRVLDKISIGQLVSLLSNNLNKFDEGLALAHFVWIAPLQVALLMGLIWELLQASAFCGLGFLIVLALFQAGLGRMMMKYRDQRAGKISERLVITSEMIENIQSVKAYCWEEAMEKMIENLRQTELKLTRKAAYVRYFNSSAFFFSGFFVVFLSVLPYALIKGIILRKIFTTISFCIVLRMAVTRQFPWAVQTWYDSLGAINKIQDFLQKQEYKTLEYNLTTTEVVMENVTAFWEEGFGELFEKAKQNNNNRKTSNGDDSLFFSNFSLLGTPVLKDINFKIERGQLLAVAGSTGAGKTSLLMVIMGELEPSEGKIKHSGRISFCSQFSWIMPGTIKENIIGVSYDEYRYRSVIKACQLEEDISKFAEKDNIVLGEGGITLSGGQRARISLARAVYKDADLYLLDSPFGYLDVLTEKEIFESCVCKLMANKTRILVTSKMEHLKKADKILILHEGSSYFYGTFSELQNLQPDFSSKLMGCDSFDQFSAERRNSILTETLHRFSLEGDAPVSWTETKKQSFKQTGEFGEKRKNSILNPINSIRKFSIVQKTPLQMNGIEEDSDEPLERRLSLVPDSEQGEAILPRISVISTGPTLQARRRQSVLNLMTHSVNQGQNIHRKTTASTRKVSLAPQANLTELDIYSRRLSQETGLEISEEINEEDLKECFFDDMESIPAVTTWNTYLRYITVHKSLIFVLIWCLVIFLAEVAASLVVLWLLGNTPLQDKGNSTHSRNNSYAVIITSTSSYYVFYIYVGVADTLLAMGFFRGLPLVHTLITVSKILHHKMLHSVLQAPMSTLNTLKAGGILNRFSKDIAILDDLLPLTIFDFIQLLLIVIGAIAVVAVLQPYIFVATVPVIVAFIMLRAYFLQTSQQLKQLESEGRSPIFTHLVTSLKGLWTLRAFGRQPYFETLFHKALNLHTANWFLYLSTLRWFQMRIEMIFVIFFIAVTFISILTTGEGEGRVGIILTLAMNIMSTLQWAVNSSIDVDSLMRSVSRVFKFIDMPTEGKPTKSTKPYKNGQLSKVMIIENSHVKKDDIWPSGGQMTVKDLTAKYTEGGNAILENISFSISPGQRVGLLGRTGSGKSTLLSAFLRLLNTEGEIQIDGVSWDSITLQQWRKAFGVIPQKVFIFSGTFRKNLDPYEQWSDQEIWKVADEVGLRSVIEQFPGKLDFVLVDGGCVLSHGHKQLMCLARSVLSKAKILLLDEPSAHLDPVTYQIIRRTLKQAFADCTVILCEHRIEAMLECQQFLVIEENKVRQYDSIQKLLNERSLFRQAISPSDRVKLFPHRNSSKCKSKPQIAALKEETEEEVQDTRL

Take `COc1cccc(CCNC(=O)[C@@H]2CC(=O)N(C)[C@@H](CC(C)C)C(=O)N3CCN(S(=O)(=O)c4ccccn4)C[C@@H]3C(=O)N[C@H](Cc3ccccc3)COc3ccc4ccccc4c3C(=O)N2)c1` [Example 747, (4aR,7R,18S,22S)-7-benzyl-22-isobutyl-N-(3-methoxyphenethyl)-21-methyl-5,16,20,23-tetraoxo-3-(pyridin-2-ylsulfonyl)-2,3,4,4a,5,6,7,8,16,17,18,19,20,21,22,23-hexadecahydro-1H-naphtho[1,2-p]pyrazino[2,1-f][1]oxa[4,7,10,14]tetraazacycloheptadecine-18-carboxamide]: the EC50 was 234 nM and the Emax stood at 213%.
In the case of `Cc1cc(CCNC(=O)[C@@H]2CC(=O)N(C)[C@@H](CC(C)C)C(=O)N3CCN(S(=O)(=O)c4ccc5c(c4)OCCN5C)C[C@@H]3C(=O)N[C@H](Cc3ccccc3)COc3cnc4ccccc4c3C(=O)N2)on1` [Example 748, (9S,13S,19aR,22R)-22-benzyl-13-isobutyl-12-methyl-18-((4-methyl-3,4-dihydro-2H-benzo[b][1,4]oxazin-7-yl)sulfonyl)-N-(2-(3-methylisoxazol-5-yl)ethyl)-7,11,14,20-tetraoxo-7,8,9,10,11,12,13,14,17,18,19,19a,20,21,22,23-hexadecahydro-16H-pyrazino[2′,11:6,7][1]oxa[4,7,10,14]tetraazacycloheptadecino[17,16-c]quinoline-9-carboxamide], the EC50 worked out at 529 nM and the Emax stood at 295%.
The matching figures for `Cc1cc(CCNC(=O)[C@@H]2CC(=O)N(C)[C@@H](CC(C)C)C(=O)N3CCN(S(=O)(=O)c4cccc(OC(F)(F)F)c4)C[C@@H]3C(=O)N[C@H](Cc3ccccc3)COc3cnc4ccccc4c3C(=O)N2)on1` [Example 749, (9S,13S,19aR,22R)-22-benzyl-13-isobutyl-12-methyl-N-(2-(3-methylisoxazol-5-yl)ethyl)-7,11,14,20-tetraoxo-18-((3-(trifluoromethoxy)phenyl)sulfonyl)-7,8,9,10,11,12,13,14,17,18,19,19a,20,21,22,23-hexadecahydro-16H-pyrazino[2′,1′:6,7][1]oxa[4,7,10,14]tetraazacycloheptadecino[17,16-c]quinoline-9-carboxamide]: 153 nM and 301%.
The like results for `COc1cccc(CCNC(=O)[C@@H]2CC(=O)N(C)[C@@H](CC(C)C)C(=O)N3CCN(C(C)=O)C[C@@H]3C(=O)N[C@H](Cc3ccccc3)COc3ccc4ccccc4c3C(=O)N2)c1` [Example 750, (4aR,7R,18S,22S)-3-Acetyl-7-benzyl-22-isobutyl-N-(3-methoxyphenethyl)-21-methyl-5,16,20,23-tetraoxo-2,3,4,4a,5,6,7,8,16,17,18,19,20,21,22,23-hexadecahydro-1H-naphtho[1,2-p]pyrazino[2,1-f][1]oxa[4,7,10,14]tetraazacycloheptadecine-18-carboxamide] were, in that order, 784 nM and 267%.
For the compound `COc1cccc(CCNC(=O)[C@@H]2CC(=O)N(C)[C@@H](CC(C)C)C(=O)N3CCN(C(=O)CC(C)C)C[C@@H]3C(=O)N[C@H](Cc3ccccc3)COc3ccc4ccccc4c3C(=O)N2)c1` [Example 751, (4aR,7R,18S,22S)-7-benzyl-22-isobutyl-N-(3-methoxyphenethyl)-21-methyl-3-(3-methylbutanoyl)-5,16,20,23-tetraoxo-2,3,4,4a,5,6,7,8,16,17,18,19,20,21,22,23-hexadecahydro-1H-naphtho[1,2-p]pyrazino[2,1-f][1]oxa[4,7,10,14]tetraazacycloheptadecine-18-carboxamide], the EC50 was determined as 217 nM and the Emax worked out at 213%.
The matching figures for `COCCC(=O)N1CCN2C(=O)[C@H](CC(C)C)N(C)C(=O)C[C@@H](C(=O)NCCc3cccc(OC)c3)NC(=O)c3c(ccc4ccccc34)OC[C@@H](Cc3ccccc3)NC(=O)[C@H]2C1` [Example 752, (4aR,7R,18S,22S)-7-benzyl-22-isobutyl-N-(3-methoxyphenethyl)-3-(3-methoxypropanoyl)-21-methyl-5,16,20,23-tetraoxo-2,3,4,4a,5,6,7,8,16,17,18,19,20,21,22,23-hexadecahydro-1H-naphtho[1,2-p]pyrazino[2,1-f][1]oxa[4,7,10,14]tetraazacycloheptadecine-18-carboxamide]: 706 nM and 200%.
Consider `COc1cccc(CCNC(=O)[C@@H]2CC(=O)N(C)[C@@H](CC(C)C)C(=O)N3CCN(C(=O)c4cnccn4)C[C@@H]3C(=O)N[C@H](Cc3ccccc3)COc3ccc4ccccc4c3C(=O)N2)c1` [Example 753, (4aR,7R,18S,22S)-7-benzyl-22-isobutyl-N-(3-methoxyphenethyl)-21-methyl-5,16,20,23-tetraoxo-3-(pyrazine-2-carbonyl)-2,3,4,4a,5,6,7,8,16,17,18,19,20,21,22,23-hexadecahydro-1H-naphtho[1,2-p]pyrazino[2,1-f][1]oxa[4,7,10,14]tetraazacycloheptadecine-18-carboxamide], for which the EC50 was 430 nM and the Emax came to 264%.
Regarding `COC(=O)N1CCN2C(=O)[C@H](CC(C)C)N(C)C(=O)C[C@@H](C(=O)NCCc3cccc(OC)c3)NC(=O)c3c(ccc4ccccc34)OC[C@@H](Cc3ccccc3)NC(=O)[C@H]2C1` [Example 754, Methyl (4aR,7R,18S,22S)-7-benzyl-22-isobutyl-18-((3-methoxyphenethyl)carbamoyl)-21-methyl-5,16,20,23-tetraoxo-1,2,4,4a,5,6,7,8,16,17,18,19,20,21,22,23-hexadecahydro-3H-naphtho[1,2-p]pyrazino[2,1-f][1]oxa[4,7,10,14]tetraazacycloheptadecine-3-carboxylate], the EC50 turned out to be 219 nM and the Emax is 279%.
Take `CCOC(=O)N1CCN2C(=O)[C@H](CC(C)C)N(C)C(=O)C[C@@H](C(=O)NCCc3cccc(OC)c3)NC(=O)c3c(ccc4ccccc34)OC[C@@H](Cc3ccccc3)NC(=O)[C@H]2C1` [Example 755, ethyl (4aR,7R,18S,22S)-7-benzyl-22-isobutyl-18-((3-methoxyphenethyl)carbamoyl)-21-methyl-5,16,20,23-tetraoxo-1,2,4,4a,5,6,7,8,16,17,18,19,20,21,22,23-hexadecahydro-3H-naphtho[1,2-p]pyrazino[2,1-f][1]oxa[4,7,10,14]tetraazacycloheptadecine-3-carboxylate]: the EC50 is 168 nM and the Emax was found to be 270%.
The matching figures for `COc1cccc(CCNC(=O)[C@@H]2CC(=O)N(C)[C@@H](CC(C)C)C(=O)N3CCN(C(=O)OC4CCOCC4)C[C@@H]3C(=O)N[C@H](Cc3ccccc3)COc3ccc4ccccc4c3C(=O)N2)c1` [Example 756, Tetrahydro-2H-pyran-4-yl (4aR,7R,18S,22S)-7-benzyl-22-isobutyl-18-((3-methoxyphenethyl)carbamoyl)-21-methyl-5,16,20,23-tetraoxo-1,2,4,4a,5,6,7,8,16,17,18,19,20,21,22,23-hexadecahydro-3H-naphtho[1,2-p]pyrazino[2,1-f][1]oxa[4,7,10,14]tetraazacycloheptadecine-3-carboxylate]: 311 nM and 252%.

Source of the values: patent US20240208992A1, “MACROCYCLES AS CFTR MODULATORS” (Idorsia Pharmaceuticals Ltd, priority 2021, published 2024).
